PMC8694140, “Synthesis and photobiological applications of naphthalimide–benzothiazole conjugates: cytotoxicity and topoisomerase IIα inhibition” (RSC Advances, 2021)
Read-outs that look alike come from different tables or passages of the source.

Columns and labels:
[1] = target: human type IIa topoisomerase (Homo sapiens, UniProt P11388); experiment: Relaxation assay of human topoisomerase IIa (supercoiled pHOT1 plasmid DNA, agarose gel); type: biochemical; details: compared with etoposide (Fig. S56)
Method: The concentrations 0.1, 0.5, 1, 1.5, 2, and 3 μM were taken for both compounds (Fig. 3).
The assay of human type IIa topoisomerase mediated relaxation of supercoiled plasmid DNA was performed using reaction buffer (20 μl) (5 mM dithiothreitol, 0.5 M Tris–HCl, pH 8.0, 20 mM ATP, 1.50 M NaCl, 300 μg ml^−1 BSA, and 100 mM MgCl2) having supercoiled pHOT1 plasmid DNA (500 ng) and human type IIa topoisomerase enzyme (4 units). The reaction mixtures were incubated for 30 min at 37 °C, followed by adding 10% sodium dodecyl sulfate (2 μl) to stop the reaction. Added 0.5 mg ml^−1 proteinase K (1 μl) to the reaction mixture and allowed to incubate for 15 min at 37 °C. Then, added loading buffer, i.e., 0.25% bromophenol blue and 50% glycerol (1 μl) to the reaction mixture and run on 1% agarose gel electrophoresis using TAE buffer (1.14 ml acetic acid, and 0.37 g EDTA pH 8.1, and 100 ml of 10× stock solution–4.8 g of Tris base). The gel containing DNA was stained with ethidium bromide, washed, and photographed using UV light.

[2] = target: T1, human serum albumin (HSA) (Homo sapiens, UniProt P02768); experiment: Energy transfer (FRET) between HSA and compounds; type: binding; details: compound acceptor; for E (efficiency of energy transfer) / R0 (critical distance, 50% efficiency of energy transfer): HSA donor
From the text: Eqn (8)–(10) are used to calculate the values of overlap integral of an emission spectrum of donor with the absorption spectrum of the acceptor (J), the critical distance (50% efficiency of energy transfer, R0), efficiency of energy transfer (E), and the distance among donor and acceptor (r). […] The calculated distance between donor and acceptor for compounds 12 and 13 was found less than 8 nm, and both compounds follow 0.5R0 < r < 1.5R0.
The energy transfer study was accomplished by recording the HSA emission spectrum at 280 nm excitation wavelength and the absorption spectra of compounds 12 and 13.
The following eqn (8)–(10) were used to determine the donor to acceptor energy transfer (E), the critical distance required for energy transfer by 50% (R0), overlap integral of the emission spectrum of donor with the absorption spectrum of the acceptor (J), and distance among the donor and the acceptor (r):[39,57]8 [drawing 6] In this equation, F0 and F denote the emission intensities of HSA in free form and the presence of compounds 12 and 13, respectively.9 R0^6 = 8.8 × 10^−25k^2η^−4ϕJwhere k^2, η, ϕ denote the orientation factor of dipoles, refracted index for used medium, and fluorescence quantum yield of the donor.10 [drawing 7] In this equation, F(λ) denotes the emission intensity for the free form of the donor at the wavelength λ, whereas ε(λ) denotes the molar absorption coefficient of acceptor at the wavelength λ.

[3] = tested on: A549 (lung) human cancer cell line; experiment: MTT cytotoxicity assay, A549; type: cell-based; details: Homo sapiens, A549, 48 h
Method: Human malignant cell lines, i.e., MCF7 (breast), HeLa (cervix), and A549 (lung), as well as non-cancerous human cell line Hek293 (kidney), were cultured using the Ham's media or DMEM having 10% FBS, […] streptomycin, 100 U ml^−1 penicillin, and 50 mM glutamine. For seeding of cells, 96 well plates were used, maintaining the density of […] cells per well with the help of DMEM as a media having 10% FBS cells. Then, seeded cells were incubated in an incubator having a 5% CO2 supply at 37 °C. Compounds were added to the wells at 1, 10, and 100 μM concentrations, and cells were incubated for 48 h at 37 °C and then added 10 μl of MTT to each well prepared from 5 mg ml^−1 stock solution using 1 × PBS buffer and were incubated for 4 h at 37 °C in the dark. DMSO (100 μl) was used to dissolve the formazan crystals. To determine the concentration of formazan, the crystal absorbance difference was recorded at 570 nm. The percentage of relative cell toxicity was calculated by using the following eqn (1):1 [drawing 1]

[4] = target: T1, human serum albumin (HSA); experiment: Excited-state fluorescence lifetime of HSA; type: binding
[5] = target: T1, human serum albumin (HSA); experiment: HSA fluorescence quenching (Stern–Volmer, modified Stern–Volmer, van't Hoff); type: binding; details: for Kd: read-out: K b (binding constant, modified Stern–Volmer) (converted); for quenching of emission of HSA at 347 nm: HSA 10 μM, compound up to 33 μM, λex 280 nm; for ΔH of HSA binding / ΔS of HSA binding: van't Hoff plot, 298–318 K
Method: The binding of compounds to HSA can affect the fluorescence of these fluorophores.[34–36] […] Incremental addition of compounds 12 and 13 (33 μM) led to good quenching (90–95%) of emission of HSA at 347 nm (Fig. 5, S58, and S59 ^†), which indeed indicated the binding of compounds to HSA. Fluorescence quenching data have been analyzed using the Stern–Volmer equation eqn (3)[38] at three different temperatures, i.e., 298 K, […], and 318 K, where Stern–Volmer plots were obtained (Fig. S60 and S61 ^†). Good linearity of plots was observed having a correlation coefficient (R) ≥ 0.9396 throughout all the experiments. The values of the Stern–Volmer quenching constant (KSV), a measure of fluorescence quenching efficiency of the analyte, were calculated from these plots and are reported in Table 2. The fluorescence quenching mechanism, whether dynamic or static quenching, can be investigated using the dependency of KSV values on temperature. […] Thus, the detected quenching in fluorescence of HSA on the addition of compounds 12 and 13 appears as a result of complex formation between compound and HSA. […] Thus, in the present study, the static quenching phenomenon has occurred in the quenching process for represented HSA–compound systems.
To record the emission spectra, a fixed amount of HSA (10 μM) was titrated with increasing concentration of compounds 12 and 13 (33 μM) in phosphate buffer of pH 7.4 at 298 K, 308 K, and 318 K. All spectra were recorded in the range of 200–800 nm at excitation wavelength 280 nm and a constant slit width was used for excitation and emission throughout the experiments.
To determine the quenching constant, following Stern–Volmer eqn (3) was used.3 [drawing 3] where, F0 and F denote the emission intensity of HSA in free form and the presence of compounds 12 and 13, respectively. The plots of F0/F versus [compound] were used to determine the Stern–Volmer quenching constants (KSV) and bimolecular quenching constants (Kq).
Further to determine the binding constants (Kb) and the average number of binding sites (n), the following modified Stern–Volmer eqn (4) was used.4 [drawing 4] where F0 and F are the same as in eqn (3). The values of Kb and n were determined from intercept and slope, respectively, as log{(F0 − F)/F versus log[compound]} plots.
The thermodynamic parameters such as the change in enthalpy (ΔH) and change in entropy (ΔS) were determined by following the van't Hoff eqn (5):5 [drawing 5] R and T denote the gas constant and absolute temperature, respectively.
The change in free energy (ΔG) for various temperatures was determined by the following eqn (6):6 ΔG = ΔH − TΔS

Sequence of human type IIa topoisomerase (P11388 whole entry): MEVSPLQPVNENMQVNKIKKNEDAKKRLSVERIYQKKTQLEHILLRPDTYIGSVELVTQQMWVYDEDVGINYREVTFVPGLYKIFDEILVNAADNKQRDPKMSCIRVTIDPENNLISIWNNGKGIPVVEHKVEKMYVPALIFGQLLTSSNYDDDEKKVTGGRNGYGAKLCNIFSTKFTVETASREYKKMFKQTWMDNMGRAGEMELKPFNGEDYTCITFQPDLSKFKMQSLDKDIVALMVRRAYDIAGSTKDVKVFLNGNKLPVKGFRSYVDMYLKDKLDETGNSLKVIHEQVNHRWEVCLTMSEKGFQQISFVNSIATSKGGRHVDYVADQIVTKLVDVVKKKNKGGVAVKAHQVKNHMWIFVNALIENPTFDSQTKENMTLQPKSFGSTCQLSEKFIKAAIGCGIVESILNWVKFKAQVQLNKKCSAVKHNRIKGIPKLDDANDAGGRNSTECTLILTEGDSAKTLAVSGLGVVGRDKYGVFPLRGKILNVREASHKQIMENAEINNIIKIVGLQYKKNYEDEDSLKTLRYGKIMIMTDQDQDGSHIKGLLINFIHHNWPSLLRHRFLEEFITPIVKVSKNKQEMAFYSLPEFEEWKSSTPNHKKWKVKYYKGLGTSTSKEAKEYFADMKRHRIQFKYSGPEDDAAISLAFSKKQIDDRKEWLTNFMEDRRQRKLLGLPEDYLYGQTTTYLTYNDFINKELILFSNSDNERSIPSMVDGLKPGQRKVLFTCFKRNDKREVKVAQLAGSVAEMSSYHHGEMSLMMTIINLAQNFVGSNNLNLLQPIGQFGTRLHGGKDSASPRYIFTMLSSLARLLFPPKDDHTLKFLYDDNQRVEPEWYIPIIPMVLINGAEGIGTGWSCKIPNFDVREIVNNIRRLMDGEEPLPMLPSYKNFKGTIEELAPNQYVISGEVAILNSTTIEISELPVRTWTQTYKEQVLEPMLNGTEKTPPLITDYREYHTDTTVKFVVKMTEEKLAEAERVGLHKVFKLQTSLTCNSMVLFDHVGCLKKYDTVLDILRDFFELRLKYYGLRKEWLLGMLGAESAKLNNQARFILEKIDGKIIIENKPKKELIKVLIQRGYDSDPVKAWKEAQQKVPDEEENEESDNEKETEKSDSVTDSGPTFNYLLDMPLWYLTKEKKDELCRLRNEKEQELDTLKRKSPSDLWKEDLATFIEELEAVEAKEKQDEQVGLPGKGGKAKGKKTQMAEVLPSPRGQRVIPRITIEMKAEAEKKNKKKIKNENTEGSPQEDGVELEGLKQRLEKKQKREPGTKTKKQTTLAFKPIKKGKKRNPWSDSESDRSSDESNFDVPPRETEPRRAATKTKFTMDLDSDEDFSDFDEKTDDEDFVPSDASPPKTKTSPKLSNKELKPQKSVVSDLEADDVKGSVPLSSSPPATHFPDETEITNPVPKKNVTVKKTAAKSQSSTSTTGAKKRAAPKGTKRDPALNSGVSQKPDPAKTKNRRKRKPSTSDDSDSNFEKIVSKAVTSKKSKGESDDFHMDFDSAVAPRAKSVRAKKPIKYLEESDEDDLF
T1 sequence (P02768 25-609): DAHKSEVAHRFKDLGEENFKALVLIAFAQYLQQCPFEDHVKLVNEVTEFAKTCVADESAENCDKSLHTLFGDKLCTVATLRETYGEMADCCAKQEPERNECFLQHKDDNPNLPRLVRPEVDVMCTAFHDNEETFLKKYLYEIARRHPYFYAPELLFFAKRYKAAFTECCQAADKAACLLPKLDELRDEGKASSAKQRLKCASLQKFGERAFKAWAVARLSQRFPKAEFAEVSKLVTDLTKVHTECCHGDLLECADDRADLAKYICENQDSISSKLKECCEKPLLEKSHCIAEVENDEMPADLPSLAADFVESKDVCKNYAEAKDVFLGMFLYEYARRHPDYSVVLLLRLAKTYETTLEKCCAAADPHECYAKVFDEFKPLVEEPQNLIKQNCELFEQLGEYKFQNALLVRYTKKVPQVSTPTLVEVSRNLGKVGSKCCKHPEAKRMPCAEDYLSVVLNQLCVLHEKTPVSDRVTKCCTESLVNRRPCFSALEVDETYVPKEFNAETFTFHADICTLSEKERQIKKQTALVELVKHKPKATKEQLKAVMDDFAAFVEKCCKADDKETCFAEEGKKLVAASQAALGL

Row | SMILES | inhibition of topoisomerase II relaxation ([1]; 1 μM) | inhibition of topoisomerase II relaxation ([1]; 5, 10 and 50 μM) | E (efficiency of energy transfer) [2] | R0 (critical distance, 50% efficiency of energy transfer) [2] [nm] | J (overlap integral of donor emission with acceptor absorption) [2] | r (distance among donor and acceptor) [2] [nm] | IC50 [3] [µM] | τ 1 of HSA fluorescence decay ([4]; compound 7 μM) [ns] | τ 2 of HSA fluorescence decay ([4]; compound 7 μM) [ns] | α 1 of HSA fluorescence decay ([4]; compound 35 μM) | α 2 of HSA fluorescence decay ([4]; compound 35 μM) | α 3 of HSA fluorescence decay ([4]; compound 35 μM) | τ 1 of HSA fluorescence decay ([4]; compound 35 μM) [ns] | τ 2 of HSA fluorescence decay ([4]; compound 35 μM) [ns] | τ 3 of HSA fluorescence decay ([4]; compound 35 μM) [ns] | τ (average fluorescence lifetime of HSA) ([4]; compound 35 μM) [ns] | α 1 of HSA fluorescence decay ([4]; compound 70 μM) | α 2 of HSA fluorescence decay ([4]; compound 70 μM) | α 3 of HSA fluorescence decay ([4]; compound 70 μM) | τ 1 of HSA fluorescence decay ([4]; compound 70 μM) [ns] | further results
1 | C=CCn1cc(-c2nc3ccccc3s2)c2cc(-c3ccc4c5c(cccc35)C(=O)N(CCO)C4=O)ccc21 [Compound 12, 6-(1-Allyl-3-(benzo[d]thiazol-2-yl)-1H-indol-5-yl)-2-(2-hydroxyethyl)-1H-benzo[de]isoquinoline-1,3(2H)-dione] | partially inhibitor | significant and active inhibitors | 0.92 | 0.592 | 1.04 × 10^−18 cm^3 L mol^−1 | 0.393 | 0.14 ± 0.01 | 3.29 | 7.32 | 0.41 | 0.18 | 0.40 | 3.37 | 7.34 | 0.86 | 3.09 | 0.39 | 0.20 | 0.41 | 3.14 | τ 2 of HSA fluorescence decay ([4]; compound 70 μM): 7.03 ns; τ 3 of HSA fluorescence decay ([4]; compound 70 μM): 0.80 ns; τ (average fluorescence lifetime of HSA) ([4]; compound 70 μM): 2.97 ns; melting point: 292 to 295 °C; K SV (Stern–Volmer quenching constant) ([5]; 298 K): 10.46 10^6 M^−1; K q (bimolecular quenching rate constant) ([5]; 298 K): 10.46 10^14 M^−1 s^−1; n (average number of binding sites) ([5]; 298 K): 1.32; ΔG of HSA binding ([5]; 298 K): -9.27 kJ/M; Kd ([5]; 298 K): 136 nM; Kd ([5]; 308 K): 658 nM; K SV (Stern–Volmer quenching constant) ([5]; 318 K): 1.27 10^6 M^−1; K q (bimolecular quenching rate constant) ([5]; 318 K): 1.27 10^14 M^−1 s^−1; n (average number of binding sites) ([5]; 318 K): 1.30; ΔG of HSA binding ([5]; 318 K): -8.46 kJ/M; Kd ([5]; 318 K): 1190 nM; quenching of emission of HSA at 347 nm [5]: 90–95%; ΔH of HSA binding [5]: -21.32 kJ/M; ΔS of HSA binding [5]: −40.44 J M^−1 K^−1
2 | C#CCN1C(=O)c2cccc3c(-c4ccc5c(c4)c(-c4nc6ccccc6s4)cn5CC=C)ccc(c23)C1=O [Compound 13, 6-(1-Allyl-3-(benzo[d]thiazol-2-yl)-1H-indol-5-yl)-2-(prop-2-yn-1-yl)-1H-benzo[de]isoquinoline-1,3(2H)-dione] | partially inhibitor | significant and active inhibitors | 0.93 | 0.591 | 1.039 × 10^−18 cm^3 L mol^−1 | 0.377 | 0.31 ± 0.01 | 3.19 | 7.17 | 0.39 | 0.24 | 0.37 | 3.12 | 6.97 | 0.85 | 3.19 | 0.39 | 0.19 | 0.41 | 3.36 | τ 2 of HSA fluorescence decay ([4]; compound 70 μM): 7.25 ns; τ 3 of HSA fluorescence decay ([4]; compound 70 μM): 0.86 ns; τ (average fluorescence lifetime of HSA) ([4]; compound 70 μM): 3.08 ns; melting point: 282 to 285 °C; K SV (Stern–Volmer quenching constant) ([5]; 298 K): 2.58 10^6 M^−1; K q (bimolecular quenching rate constant) ([5]; 298 K): 2.58 10^14 M^−1 s^−1; n (average number of binding sites) ([5]; 298 K): 1.17; ΔG of HSA binding ([5]; 298 K): -8.37 kJ/M; Kd ([5]; 298 K): 662 nM; Kd ([5]; 308 K): 2780 nM; K SV (Stern–Volmer quenching constant) ([5]; 318 K): 0.30 10^6 M^−1; K q (bimolecular quenching rate constant) ([5]; 318 K): 0.30 10^14 M^−1 s^−1; n (average number of binding sites) ([5]; 318 K): 1.00; ΔG of HSA binding ([5]; 318 K): -7.49 kJ/M; Kd ([5]; 318 K): 6670 nM; quenching of emission of HSA at 347 nm [5]: 90–95%; ΔH of HSA binding [5]: -21.41 kJ/M; ΔS of HSA binding [5]: −43.76 J M^−1 K^−1
